From patent publication US5576429A, “5-substituted pyrimidine nucleosides and nucleotides” (Medivir AB, priority 1988, dated 1996)
pIC50: −log10 of the molar value. Like-named read-outs stand apart in the source and are kept apart here.

Tests used:
[1] = molecular target: T1, Human immuno deficiency virus reverse transcriptase (Human immunodeficiency virus type 1 group M subtype B, UniProt P04585); assay: Test III Inhibition of HIV reverse transcriptase by triphosphates; format: biochemical; conditions: template (rA)n(dT)12-18, substrate dTTP; read-out: Concentration for 50% inhibition (IC50) of HIV RT
T1 construct: Human immuno deficiency virus reverse transcriptase; made in house; host or cells: Escherichia coli
From the text: (§1) Test III Inhibition of reverse transcriptases and DNA polymerases by triphosphates of compounds of the invention
(§2) The 5'-triphosphates were synthesized essentially as described (Yoshikawa, M, Kato T, Takenishi T, Bull. Chem. Soc. (Japan), 42,3505-3508, 1969; Ludwig, J., Acta Biochim. Biophys. Acad. Sci. Hung. 16, 131-133, 1981; Ruth, J. L., Cheng, Y. C., Mol. Pharmacol. 20, 415 1981.) The HIV-RT was obtained as described by Hansen et al (Hansen J, Schulze T and Moelling K, J. Biol. Chem. 262, 12393-12396, 1987) from culture of Escherichia coli expressing the cloned HIV-pol gene. The HBV-DNAP was prepared from virus obtained from human serum, essentially as described by Nordenfelt et al (1987) [Nordenfelt E, Lofgren B, Chattopadhyaya J., Oberg B, J. Med. Virol. 22, 231-236, 1987]. The HSV-2 DNAP and cellular DNAPα preparation and reaction conditions have been described by Larsson et al [Larsson A, Sundqvist A, Parnerud A-M, 1986, Mol. Pharmacol. 29, 614-621]. […] The hepatitis B virus enzyme activity was determined with a virus preparation solubilized by non-idet P40, and endogenous nucleic acid as template, as described by Nordenfelt et al (vide supra)

[2] = molecular target: T2, Hepatit B virus DNA polymerase (Hepatitis B virus genotype D subtype ayw, UniProt P03156); assay: Test III Inhibition of HBV DNA polymerase by triphosphates; format: biochemical; conditions: virus preparation from human serum, endogenous nucleic acid as template; read-out: Concentration for 50% inhibition (IC50) of HBV DNAP
T2 construct: The HBV-DNAP was prepared from virus obtained from human serum; from tissue; host or cells: hepatitis B virus particles from human serum, solubilized with Nonidet P40
T2 sequence (P03156 whole entry): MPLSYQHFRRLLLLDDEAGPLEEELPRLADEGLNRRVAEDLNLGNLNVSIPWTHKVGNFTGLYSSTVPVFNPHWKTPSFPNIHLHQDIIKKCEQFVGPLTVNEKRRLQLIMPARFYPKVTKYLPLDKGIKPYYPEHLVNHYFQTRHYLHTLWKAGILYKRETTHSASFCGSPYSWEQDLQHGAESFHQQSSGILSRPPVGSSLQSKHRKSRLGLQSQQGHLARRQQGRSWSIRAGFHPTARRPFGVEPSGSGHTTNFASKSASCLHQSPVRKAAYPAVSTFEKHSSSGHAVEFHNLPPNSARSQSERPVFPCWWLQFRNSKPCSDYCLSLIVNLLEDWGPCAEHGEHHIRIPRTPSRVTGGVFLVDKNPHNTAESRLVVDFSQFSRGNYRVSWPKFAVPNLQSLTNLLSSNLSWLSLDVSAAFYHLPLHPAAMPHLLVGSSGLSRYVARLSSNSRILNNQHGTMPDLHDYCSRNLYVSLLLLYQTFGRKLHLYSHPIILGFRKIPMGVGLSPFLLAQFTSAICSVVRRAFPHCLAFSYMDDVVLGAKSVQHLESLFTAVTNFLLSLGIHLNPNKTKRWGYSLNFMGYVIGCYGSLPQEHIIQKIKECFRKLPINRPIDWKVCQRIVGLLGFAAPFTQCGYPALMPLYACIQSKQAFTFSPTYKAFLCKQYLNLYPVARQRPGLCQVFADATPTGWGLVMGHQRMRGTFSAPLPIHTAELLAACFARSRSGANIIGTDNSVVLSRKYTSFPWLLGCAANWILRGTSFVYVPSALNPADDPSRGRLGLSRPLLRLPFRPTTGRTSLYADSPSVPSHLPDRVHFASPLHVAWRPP
From the text: as §1, §2

[3] = molecular target: Herpes simplex virus type 2 DNA polymerase (Human herpesvirus 2, UniProt P89453); assay: Test III Inhibition of HSV-2 DNA polymerase by triphosphates; format: biochemical; conditions: read-out: Concentration for 50% inhibition (IC50) of HSV-2 DNAP
Sequence of Herpes simplex virus type 2 DNA polymerase (P89453 whole entry): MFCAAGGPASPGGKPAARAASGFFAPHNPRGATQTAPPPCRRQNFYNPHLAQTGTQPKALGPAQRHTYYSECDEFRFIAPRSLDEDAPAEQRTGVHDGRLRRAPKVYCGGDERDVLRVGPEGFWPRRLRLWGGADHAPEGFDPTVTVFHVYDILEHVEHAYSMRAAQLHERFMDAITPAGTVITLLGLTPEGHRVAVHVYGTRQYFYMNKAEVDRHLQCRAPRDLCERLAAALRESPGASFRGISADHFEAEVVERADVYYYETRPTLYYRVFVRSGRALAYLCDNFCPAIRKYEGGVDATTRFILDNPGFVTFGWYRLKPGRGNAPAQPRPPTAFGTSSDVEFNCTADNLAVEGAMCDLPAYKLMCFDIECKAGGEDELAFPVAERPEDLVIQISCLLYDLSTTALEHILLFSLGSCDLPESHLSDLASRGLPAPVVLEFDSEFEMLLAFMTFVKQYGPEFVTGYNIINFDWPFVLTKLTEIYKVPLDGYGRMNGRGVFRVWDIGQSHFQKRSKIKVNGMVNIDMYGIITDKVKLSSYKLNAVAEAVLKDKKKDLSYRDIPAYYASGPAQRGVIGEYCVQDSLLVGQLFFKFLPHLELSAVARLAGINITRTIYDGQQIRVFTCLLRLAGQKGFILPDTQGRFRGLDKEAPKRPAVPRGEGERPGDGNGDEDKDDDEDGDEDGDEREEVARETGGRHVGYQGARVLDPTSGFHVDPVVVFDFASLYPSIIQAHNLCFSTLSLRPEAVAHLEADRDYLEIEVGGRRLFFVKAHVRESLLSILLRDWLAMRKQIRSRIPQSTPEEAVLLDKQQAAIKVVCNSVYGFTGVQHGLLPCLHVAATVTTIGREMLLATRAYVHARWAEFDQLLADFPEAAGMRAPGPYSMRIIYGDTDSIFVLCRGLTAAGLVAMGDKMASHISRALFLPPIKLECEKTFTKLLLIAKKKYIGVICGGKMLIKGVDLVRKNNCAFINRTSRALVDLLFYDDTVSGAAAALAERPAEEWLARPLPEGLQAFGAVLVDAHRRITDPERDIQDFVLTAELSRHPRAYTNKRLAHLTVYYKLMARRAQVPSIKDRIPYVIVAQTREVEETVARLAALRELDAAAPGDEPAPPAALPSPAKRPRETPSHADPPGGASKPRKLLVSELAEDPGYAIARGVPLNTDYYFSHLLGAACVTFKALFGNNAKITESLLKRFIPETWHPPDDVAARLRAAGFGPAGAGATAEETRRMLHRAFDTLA
From the text: as §1, §2

DNA polymerase alpha = molecular target: T3, DNA polymerase alpha (Homo sapiens, UniProt P09884); assay: Test III Inhibition of cellular DNA polymerase alpha by triphosphates; format: biochemical; conditions: cellular DNAPα; read-out: Concentration for 50% inhibition (IC50) of DNAPα
T3 sequence (P09884 1-1462): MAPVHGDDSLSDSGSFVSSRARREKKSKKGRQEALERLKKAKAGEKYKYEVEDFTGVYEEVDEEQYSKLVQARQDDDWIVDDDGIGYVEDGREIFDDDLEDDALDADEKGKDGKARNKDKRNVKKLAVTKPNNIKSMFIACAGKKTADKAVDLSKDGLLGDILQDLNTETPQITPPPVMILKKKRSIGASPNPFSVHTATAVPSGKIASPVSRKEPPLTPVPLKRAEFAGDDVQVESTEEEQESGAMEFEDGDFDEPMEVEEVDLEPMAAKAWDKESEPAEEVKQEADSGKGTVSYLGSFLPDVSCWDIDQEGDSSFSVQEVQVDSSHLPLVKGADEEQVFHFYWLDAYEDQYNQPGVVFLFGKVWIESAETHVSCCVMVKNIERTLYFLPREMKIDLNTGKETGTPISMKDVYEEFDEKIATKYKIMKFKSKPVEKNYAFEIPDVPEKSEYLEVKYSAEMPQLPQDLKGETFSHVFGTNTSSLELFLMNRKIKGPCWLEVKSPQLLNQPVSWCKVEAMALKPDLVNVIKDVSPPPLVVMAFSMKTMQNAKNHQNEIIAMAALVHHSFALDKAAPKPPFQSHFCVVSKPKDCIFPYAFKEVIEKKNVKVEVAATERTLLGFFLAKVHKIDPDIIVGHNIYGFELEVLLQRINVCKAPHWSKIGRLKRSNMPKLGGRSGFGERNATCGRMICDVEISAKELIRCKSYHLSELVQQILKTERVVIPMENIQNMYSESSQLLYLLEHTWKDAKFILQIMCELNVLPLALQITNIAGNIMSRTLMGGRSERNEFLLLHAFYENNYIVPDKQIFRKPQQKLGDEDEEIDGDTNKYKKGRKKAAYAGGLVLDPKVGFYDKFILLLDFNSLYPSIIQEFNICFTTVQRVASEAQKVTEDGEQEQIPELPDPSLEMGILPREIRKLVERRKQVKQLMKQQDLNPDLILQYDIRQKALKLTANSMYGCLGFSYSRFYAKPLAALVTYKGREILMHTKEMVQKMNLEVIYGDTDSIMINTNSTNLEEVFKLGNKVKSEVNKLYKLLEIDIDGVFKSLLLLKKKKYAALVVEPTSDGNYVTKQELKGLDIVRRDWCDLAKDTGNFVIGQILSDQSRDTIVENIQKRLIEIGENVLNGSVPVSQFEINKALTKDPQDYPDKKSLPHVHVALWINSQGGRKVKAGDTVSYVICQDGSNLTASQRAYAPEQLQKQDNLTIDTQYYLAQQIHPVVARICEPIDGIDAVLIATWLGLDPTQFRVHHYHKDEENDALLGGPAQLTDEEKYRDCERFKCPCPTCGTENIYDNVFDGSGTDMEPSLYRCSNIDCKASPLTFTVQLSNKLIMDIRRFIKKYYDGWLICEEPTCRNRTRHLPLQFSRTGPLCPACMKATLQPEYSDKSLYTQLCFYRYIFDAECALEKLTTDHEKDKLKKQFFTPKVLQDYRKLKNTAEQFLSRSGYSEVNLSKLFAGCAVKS
From the text: as §1, §2

HIV (HTLV-IIIB) = assay: Test I Effect of compounds on HIV in H9 cells (frequency of HIV antigen containing cells); format: cell-based
Protocol: Test I Effect of compounds of the formula I on HIV in H9 cells
Materials and methods: HIV infection of H9 cells
H9 cells, 10^5 cells per well on a 24 well plate, suspended in 2 ml RPMI-medium containing 10% fetal calf serum, 100 μg/ml pencillin, 10 μg/ml streptomycin sulfate and 2 μg/ml polybrene are exposed to HIV (HTLV-IIIB) and different concentrations of the test compounds. The plates are incubated at 37° C. in 5% CO2 for 6-7 days. The contents in each well is then homogenized with a pipette and transferred to a centrifuge tube. After centrifugation for 10 min at 1500 rpm the supernatant is removed and the cell pellet is analyzed by fixing in methanol on glass plates. Human HIV positive serum diluted 1:80 or 1:160 is added and incubated for 30 min at 37° C. The plate is then washed with phosphate-buffered saline (PBS) containing Ca^2+ and Mg^2 +. Sheep antihuman conjugate (FITC) is added and after a new incubation the plate is again washed with PBS. Contrast staining is done with Evans blue and after drying the frequency of HIV antigen containing cells is determined in a microscope.

[4] = Test II Cellular toxicity on H9 cells (cell number after 48 h); format: cell-based; conditions: human, read-out: % inhibition of cell multiplication, H9
[5] = Test II Cellular toxicity on F5000 cells (cell number after 48 h); format: cell-based, human; conditions: human, read-out: % inhibition of cell multiplication, F 5000
Protocol: (§3) Test II Cellular toxicity
(§4) F5000 cells, which are human embryo cells, 1×10^5 cells per plate, are incubated in Eagle's minimal essential medium, supplemented with Earle's salts, non-essential amino acids, 10% fetal calf serum, 10 mM hepes, 70 mg/l penicillin and 100 mg/l streptomycin, in absence or presence of test compounds. The number of cells per plate is determined after 48 h.

H9 cells = assay: Test II Cellular toxicity on H9 cells (cell number after 48 h); format: cell-based; conditions: 200 μM
F5000 cells = assay: Test II Cellular toxicity on F5000 cells (cell number after 48 h); format: cell-based, human; conditions: 100 μM
Protocol: as §3, §4

[6] = Human immunodeficiency virus 1, H9 cells, HIV (HTLV-IIIB), 6-7 days, read-out: Concentration for 50% inhibition (IC50) of human immuno deficiency virus multiplication in cell culture
[7] = Human immunodeficiency virus 1, IIIB, H9, read-out: Concentration for 50% inhibition (IC50) of human immuno deficiency virus multiplication in cell culture

## O=c1[nH]c(=O)n([C@@H]2C[C@H](O)[C@@H](COP(=O)(O)OP(=O)(O)OP(=O)(O)O)O2)cc1-c1cccs1 [1-(2-Deoxy-alpha-D-ribofuranasyl)-5-(2-thienyl)uracil-5'-triphosphate]
[1]
  pIC50: 5.70
[2]
  pIC50: 4.74
[3]
  pIC50: 4.96
DNA polymerase alpha
  pIC50: 4.10

## O=c1[nH]c(=O)n([C@H]2C[C@H](O)[C@@H](COP(=O)(O)OP(=O)(O)OP(=O)(O)O)O2)cc1-c1cccs1 [1-(2-Deoxy-beta-D-ribofuranosyl)-5-(2-thienyl)uracil-5'-triphosphate]
[1]
  pIC50: 7.82
[2]
  pIC50: 6.96
[3]
  pIC50: 7.22
DNA polymerase alpha
  pIC50: 5.80

## O=c1[nH]c(=O)n([C@@H]2C[C@H](O)[C@@H](CO)O2)cc1-c1cccs1 [VSA 134, 1-(2-Deoxy-alpha-D-ribofuranosyl)-5-(2-thienyl)uracil]
HIV (HTLV-IIIB); [6]
  pIC50: 5.00 to 7.30
[4]; 250 μM
  inhibition at 48 h, 250 µM: 35%
[5]; 100 μM
  inhibition at 48 h, 100 µM: 0 to 35%

## O=c1[nH]c(=O)n([C@@H]2C[C@H](O)[C@@H](CO)O2)cc1-c1ccc[se]1 [VSA 188]
HIV (HTLV-IIIB); [7]
  pIC50: 4.70 to 5.70
[4]
  inhibition at 48 h, 200 µM: 40%
[5]
  inhibition at 48 h, 200 µM: 15%

## O=c1[nH]c(=O)n([C@H]2C[C@H](O)[C@@H](CO)O2)cc1-c1cccs1 [VSA 189]
H9 cells
  % inhibition of cell multiplication, H9: 35%
F5000 cells
  % inhibition of cell multiplication, F 5000: 10%

## O=c1[nH]c(=O)n([C@H]2C[C@H](O)[C@@H](CO)O2)cc1-c1cc[se]c1 [VSA 992]
[4]
  inhibition at 48 h, 200 µM: 40%
[5]
  inhibition at 48 h, 200 µM: 0%

## O=c1[nH]c(=O)n([C@@H]2C[C@H](O)[C@@H](CO)O2)cc1-c1cc[se]c1 [VSA 996]
HIV (HTLV-IIIB); [7]
  pIC50: 4.00 to 5.52
[4]
  inhibition at 48 h, 200 µM: 65%
[5]
  inhibition at 48 h, 200 µM: 30%

## O=c1[nH]c(=O)n([C@@H]2C[C@H](O)[C@@H](CO)O2)cc1-c1ccco1 [VSB 007, 1-(2-Deoxy-alpha-D-ribofuranosyl)-5-(2-furyl)uracil]
HIV (HTLV-IIIB); [6]
  pIC50: > 5.00

## O=c1[nH]c(=O)n([C@H]2C[C@H](O)[C@@H](CO)O2)cc1-c1ccco1 [VSB 008, 1-(2-Deoxy-beta-D-ribofuranosyl)-5-(2-furyl)uracil]
[5]
  inhibition at 48 h, 200 µM: 0%
